Results: a melting point compilation (Tetko et al.; mined from patent text by program, amines drawn as free bases though some values may be those of a salt)

Row | melting point [°C] | Compound
1 | 181 to 182 | O=C(O)CC[C@H](NC(=O)N1CCc2cc(S(=O)(=O)N3CCN(c4cccc(Cl)c4)CC3)ccc21)C(=O)O
2 | 228 to 229 | CSC(N)=C(C#N)C#N
3 | 172 to 174 | Cc1c(C(=O)Nc2ccc(OCCCN3CCOCC3)c(C#N)c2)cnn1-c1ccc(C(F)(F)F)cc1
4 | 181 to 183 | COc1cc(Br)cc(/C=C/C(=O)/C=C/c2cc(Br)cc(OC)c2)c1
5 | 174 to 175 | CCc1cc2c(O)cc(=O)oc2cc1OC
6 | 221 | COc1ccc(NC(=O)c2ccncc2)c2c1oc1ccccc12
7 | 105 | O=C1c2cc(-c3ccc(C(F)(F)F)cc3)ccc2CC1Br (stereo not given)
8 | 157 | CNC(=S)C1(c2ccccn2)OCCCS1 (stereo not given)
9 | 160 | Nc1c(Cl)ccc2c1C(=O)CO2
10 | 90 to 91 | CCCCCCCCCCCCCCOc1ccc(CC(=O)NCCc2ccccn2)cc1
11 | 236 to 240 | Sc1nnc(-c2cc3c(Oc4ccc(Cl)cc4)cncc3s2)o1
12 | 159 | Cc1ccc(NC(=O)c2cc(Cl)cc(C)n2)nc1
13 | 156 to 158 | NCc1noc(-c2ncn3c2[C@@H]2CCCN2C(=O)c2sccc2-3)n1
14 | 173 to 175 | CCCCCCCCCCCCCCCCNc1ccc(C(=O)NS(C)(=O)=O)cc1
15 | 95 to 98 | C#Cc1cc(C(=O)OC)ccc1S(C)(=O)=O
16 | 230 to 232 | O=C1CCC(c2ccc(OCCCN3C(=O)c4ccccc4C3=O)c(Cl)c2)=NN1
17 | 268 to 272 | NCc1ccc(C2CCN(c3nc4c(cc3F)c(=O)c(C(=O)O)cn4C3CC3)C2)cc1 (stereo not given)
18 | 48 | N=C(c1ccccc1)c1ccccc1N
19 | 213 to 214 | Cc1ccnc(N2CCN(CCC3Cn4c(-c5ccc(O)cc5)c(C)c5cccc(c54)O3)CC2)c1 (stereo not given)

Row | melting point [°C] | Compound
20 | 115 to 118 | O=C(O)Cc1cccc2ccoc12
21 | 151 to 153 | COc1ccc(C(=N)N)cc1C
22 | 166 | CC(C)(C)c1cc(C=CC(=O)NN)cc(C(C)(C)C)c1O
23 | 244 to 245 | CC(C)(C)OC(=O)N1CC=C(c2ccc3[nH]c(=O)[nH]c3c2)CC1
24 | 108 to 109 | Oc1ccc(C2(O)CCC3CN(Cc4ccccc4)CCC3C2)cc1 (stereo not given)
25 | 72 to 74 | Cc1noc(C2CN=CN(C(c3ccccc3)(c3ccccc3)c3ccccc3)C2)n1 (stereo not given)
26 | 105 to 106 | COCOc1ccccc1-c1cc(-c2ccc(OC)c(C(=O)OC)c2)c(C#N)c(NC(=O)c2cccs2)n1
27 | 144 to 146 | COC(=O)Cn1c(=O)c2ccccc2n(CCCCl)c1=O
28 | 258 to 259 | O=C(O)CCc1ccnc(-c2nc(=O)c3ccc(Br)cc3s2)c1
29 | 122 | CN(CC=C(F)C(F)(F)C(F)(F)F)CCCCCC1Cc2cc(O)ccc2C2C(F)CC3(C)C(O)CCC3C12 (stereo not given)
30 | 273 | Nc1c(Cl)cc(C(=O)OC2CCN(CCCC(=O)c3ccc4[nH]c(=O)[nH]c4c3)CC2)c2c1CCO2
31 | 101 | COC(=O)[C@H](Cc1ccc(O)cc1)NC(=O)Cc1ccccc1
32 | 94 to 95 | O=C(O)CCCCCCCSc1ccc(O)cc1
33 | 98 to 100 | Fc1ccc([C@@H]2CCN(Cc3ccccc3)C[C@H]2COc2ccc3c(c2)OCO3)cc1
34 | 225 to 227 | COc1ccnc(CS(=O)c2nc3cc(C(F)(F)F)ccc3[nH]2)c1C (stereo not given)
35 | 109 to 110 | COc1ccccc1-c1ccc(C[C@H](NC(=O)C(C)c2c(Cl)cccc2Cl)C(=O)O)cc1 (stereo not given in full)
36 | 108 | O=C(CCc1ccncc1)NC(Cc1c[nH]c2ccccc12)C(=O)CCc1cc(C(F)(F)F)cc(C(F)(F)F)c1 (stereo not given)
37 | 95 to 97 | CCOc1ccc(C(c2ccc(C(C)(C)C)cc2)C(CC)[N+](=O)[O-])cc1 (stereo not given)
38 | 260 | Cc1cc(-c2cc(C(F)(F)F)nc(-n3cnc(-c4ccc(S(N)(=O)=O)s4)c3)n2)ccc1C(F)(F)F

Row | Compound | melting point [°C]
39 | CC(C)(C)c1c(O)[nH]c(=O)[nH]c1=O | 247 to 248
40 | O=C(OCC1CCCCC1)c1ncn2c1[C@@H]1CCCN1C(=O)c1c(Cl)cccc1-2 | 123 to 124
